For 9 molecules, GI50 and TGI results are on record in PubChem BioAssay (NCI).

The structures appear in SMILES notation. Where “and” joins values, the source holds several entries; their conditions need not be identical. Equal entries are not always repeated.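 The compound was tested at five concentrations on cells cultured in 96-well plates, with a 48-hour exposure period. GI50 = concentration required for 50% inhibition of growth. TGI marks complete inhibition of growth.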

Among the test systems are T-47D breast; HCT-116 colon; SK-MEL-2 melanoma; HCT-15 colon; CCRF-CEM leukemia; K-562 leukemia; A498 renal; OVCAR-8 ovarian; PC-3 prostate; A549 NSCLC.
Experiment in all cases: NCI tumour cell line growth inhibition, 48 h

Regarding `COc1ccc(/C=C(\C#N)n2nnc3cc(Cl)ccc32)cc1`, the GI50 with T-47D breast is 0.407 µM; with HCT-116 colon it was 0.412 µM; with SK-MEL-2 melanoma, 0.483 µM; in the assay on HCT-15 colon, 0.328 µM; with CCRF-CEM leukemia, 0.431 µM; with K-562 leukemia it was 0.217 µM. Moreover, the GI50 is 0.201 µM in the assay with A498 renal, 0.751 µM with OVCAR-8 ovarian, 0.498 µM in the assay with PC-3 prostate and 0.714 µM with A549 NSCLC. For the same molecule, the TGI in the assay on HCT-116 colon is 26.2 µM; in the assay on SK-MEL-2 melanoma, greater than 47.6 µM; in the assay on HCT-15 colon, 11.4 µM; in the assay with CCRF-CEM leukemia it was greater than 100 µM; with K-562 leukemia it was greater than 100 µM; with A498 renal, 3.11 µM. For the same molecule, the results for the TGI in the assay with OVCAR-8 ovarian, in the assay with PC-3 prostate and with A549 NSCLC were greater than 100 µM, greater than 75.2 µM and greater than 100 µM, respectively.

Consider `Cc1c2ncccc2c(C)c2c1[nH]c1ccc(O)cc12`, for which the GI50 in the assay on T-47D breast was 42.8 µM; in the assay with HCT-116 colon, 2.91 µM and 6.58 µM; in the assay on HCT-15 colon it was 6.16 µM and 6.53 µM; in the assay on CCRF-CEM leukemia, 4.65 µM; in the assay on K-562 leukemia, 5.04 µM; with OVCAR-8 ovarian, 4.99 µM and 2.86 µM. The GI50 with PC-3 prostate was 7.27 µM and 5.01 µM; with A549 NSCLC, 4.89 µM and 1.93 µM. For the same molecule, the TGI with HCT-116 colon is 11 µM and 64.6 µM; in the assay with SK-MEL-2 melanoma, 97.5 µM; in the assay with HCT-15 colon it was 17.6 µM and 40 µM; in the assay with CCRF-CEM leukemia it was 5.49 µM; in the assay with K-562 leukemia, 20.9 µM and 50.4 µM; in the assay on A498 renal it was 26.1 µM. The TGI in the assay on OVCAR-8 ovarian was 18.2 µM and 32.1 µM; in the assay on PC-3 prostate it was 13.7 µM and 12.2 µM; with A549 NSCLC, 15.4 µM and 13 µM.

For `C=C1C(=O)OC2C1C(OC(=O)/C(C)=C/C)CC(O)(CCl)C1C(OC(C)=O)C=C(C)C21O` (stereo unspecified), the TGI in the assay on T-47D breast is 42.6 µM; with HCT-116 colon it was 20.8 µM; in the assay with SK-MEL-2 melanoma, 32.5 µM; in the assay on HCT-15 colon, 21.7 µM; with CCRF-CEM leukemia, 17.6 µM; in the assay on K-562 leukemia, greater than 37.4 µM. Further, the TGI with A498 renal is greater than 53.6 µM; with OVCAR-8 ovarian it was 26.5 µM; with PC-3 prostate it was 30.8 µM; in the assay with A549 NSCLC, greater than 67.3 µM.

As to `COc1cc2c3c(n(CCCO)c(=O)c2cc1OC)-c1cc2c(cc1C3=O)OCO2`, the GI50 was 14.2 µM with T-47D breast; 2.96 µM in the assay with HCT-116 colon; 31.9 µM in the assay with SK-MEL-2 melanoma; 33.4 µM with HCT-15 colon; 3.54 µM with CCRF-CEM leukemia; 6.96 µM in the assay on K-562 leukemia. The GI50 in the assay with A498 renal is 42.8 µM; in the assay with OVCAR-8 ovarian, 13.7 µM; in the assay on PC-3 prostate, greater than 24.7 µM; in the assay with A549 NSCLC it was 16.9 µM. Besides, the TGI in the assay with T-47D breast was greater than 100 µM; in the assay on HCT-116 colon it was greater than 38.6 µM; in the assay with SK-MEL-2 melanoma, greater than 100 µM; in the assay on HCT-15 colon it was greater than 100 µM; in the assay with CCRF-CEM leukemia it was 14.4 µM; in the assay with K-562 leukemia it was greater than 47 µM. Besides, the TGI in the assay with A498 renal is greater than 73 µM; with OVCAR-8 ovarian, greater than 100 µM; in the assay on PC-3 prostate it was greater than 81.7 µM; in the assay with A549 NSCLC, greater than 100 µM.

On to `C[C@@H](Oc1cc(-c2cnn(C3CCNCC3)c2)cnc1N)c1c(Cl)ccc(F)c1Cl`, for which the GI50 in the assay on T-47D breast is 1.71 µM; in the assay on HCT-116 colon, 0.619 µM; with SK-MEL-2 melanoma, 1.82 µM; in the assay on HCT-15 colon it was 2.4 µM; with CCRF-CEM leukemia it was 0.621 µM; with K-562 leukemia, 0.267 µM. The GI50 was 1.51 µM in the assay with A498 renal, 2.86 µM in the assay on OVCAR-8 ovarian, 1.35 µM in the assay with PC-3 prostate and 0.947 µM in the assay with A549 NSCLC. Besides, the TGI is 7.9 µM in the assay with T-47D breast; 4.77 µM in the assay on HCT-116 colon; 4.54 µM with SK-MEL-2 melanoma; greater than 10 µM in the assay with HCT-15 colon; 5.13 µM in the assay with CCRF-CEM leukemia; 2.3 µM with K-562 leukemia. Moreover, the TGI in the assay with A498 renal is 5.34 µM; in the assay with OVCAR-8 ovarian it was greater than 10 µM; in the assay on PC-3 prostate, greater than 10 µM; in the assay on A549 NSCLC it was greater than 10 µM.

For the molecule `CCN(CC)c1ccc2[nH]c3c(C(N)=O)cc(=O)c(=O)c=3oc2c1`, the GI50 in the assay with T-47D breast was 2.58 µM; with HCT-116 colon it was 0.281 µM; in the assay with SK-MEL-2 melanoma it was 1.65 µM; in the assay on HCT-15 colon, 1.51 µM; with CCRF-CEM leukemia, 1.9 µM; in the assay on K-562 leukemia, 1.93 µM. The GI50 is 1.92 µM in the assay with A498 renal, 2.05 µM in the assay on OVCAR-8 ovarian, 2.52 µM with PC-3 prostate and 1.75 µM in the assay with A549 NSCLC. For the same molecule, the TGI is greater than 100 µM with T-47D breast; 1.04 µM in the assay on HCT-116 colon; 6.1 µM with SK-MEL-2 melanoma; greater than 100 µM with HCT-15 colon; 8.19 µM with CCRF-CEM leukemia; greater than 100 µM with K-562 leukemia. In addition, the TGI is 9.28 µM in the assay with A498 renal, greater than 100 µM in the assay with OVCAR-8 ovarian, greater than 100 µM in the assay with PC-3 prostate and 5.12 µM with A549 NSCLC.

For the molecule `Nc1nc(SCC(=O)O)[nH]c(=O)c1N`, the TGI was greater than 100 µM in the assay on T-47D breast; greater than 100 µM with HCT-116 colon; greater than 100 µM in the assay with SK-MEL-2 melanoma; greater than 100 µM in the assay with HCT-15 colon; 7.24 µM in the assay with CCRF-CEM leukemia; 36.9 µM in the assay on K-562 leukemia. The TGI in the assay on A498 renal, in the assay on OVCAR-8 ovarian, in the assay with PC-3 prostate and with A549 NSCLC was greater than 100 µM each time.

Regarding `Cc1ccc2c(/C=C/C(=O)c3cc(CN4CCOCC4)c(O)c4nc(C)ccc34)cc(CN3CCOCC3)c(O)c2n1`, the GI50 in the assay on T-47D breast is 0.779 µM; in the assay on HCT-116 colon, 0.412 µM; in the assay on SK-MEL-2 melanoma it was 0.623 µM; in the assay with HCT-15 colon, 0.223 µM; with CCRF-CEM leukemia, 0.322 µM; with K-562 leukemia it was 0.355 µM. The GI50 with A498 renal was 1.8 µM; in the assay with OVCAR-8 ovarian, 0.588 µM; in the assay with PC-3 prostate, 0.577 µM; in the assay on A549 NSCLC it was 0.38 µM. The TGI came to 14 µM with T-47D breast; 3.41 µM in the assay with HCT-116 colon; 13.1 µM in the assay with SK-MEL-2 melanoma; 3.33 µM in the assay on HCT-15 colon; 1.12 µM in the assay with CCRF-CEM leukemia; 17.1 µM in the assay with K-562 leukemia. Besides, the TGI is 3.37 µM in the assay on A498 renal, greater than 100 µM in the assay on OVCAR-8 ovarian, 19.1 µM in the assay with PC-3 prostate and 15.1 µM in the assay on A549 NSCLC.

As for `Clc1ccc(Nc2ccnc(NCCNc3ccnc4cc(Cl)ccc34)n2)cc1`, the GI50 was 1.15 µM with T-47D breast; 0.522 µM in the assay with HCT-116 colon; 1.96 µM in the assay on SK-MEL-2 melanoma; 1.03 µM in the assay with HCT-15 colon; 1.01 µM in the assay on CCRF-CEM leukemia; 0.501 µM in the assay on K-562 leukemia. Besides, the GI50 in the assay with A498 renal was 1.13 µM; in the assay with OVCAR-8 ovarian, 1.59 µM; with PC-3 prostate, 1.19 µM; in the assay on A549 NSCLC it was 1.53 µM. The TGI in the assay on T-47D breast was determined as 3.05 µM; with HCT-116 colon, 2.12 µM; in the assay with SK-MEL-2 melanoma it was 3.5 µM; in the assay with HCT-15 colon, 2.36 µM; in the assay on CCRF-CEM leukemia it was 2.62 µM; in the assay with K-562 leukemia, 1.87 µM. Moreover, the TGI was determined as 2.39 µM with A498 renal, 3.37 µM with OVCAR-8 ovarian, 3.15 µM with PC-3 prostate and 3.1 µM with A549 NSCLC.
